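1) Cells in 96-well plates. 2) Compound, 48 h, 5 concentrations. 3) Linear interpolation between surrounding doses. 4) Unreached endpoint = highest concentration. GI50 = concentration required for 50% inhibition of growth.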 Activity calls are given as the source filed them. No stated cut-off is given here; in the data, active = GI50 up to about 1.1 µM and inactive = higher.
Experiments:
Assay in all cases: DTP human tumour cell line panel, 48 h
786-0 = system: 786-0
A498 = system: A498
A549 = system: A549
ACHN = system: ACHN
BT-549 = system: BT-549
CAKI-1 = system: CAKI-1
CCRF-CEM = system: CCRF-CEM
COLO 205 = system: COLO 205
DU-145 = system: DU-145
EKVX = system: EKVX
HCC 2998 = system: HCC 2998
HCT-116 = system: HCT-116
HCT-15 = system: HCT-15
HL-60 = system: HL-60
HOP-62 = system: HOP-62
HOP-92 = system: HOP-92
HT-29 = system: HT-29
Hs-578T = system: Hs-578T
IGROV-1 = system: IGROV-1
K562 = system: K562
KM12 = system: KM12
LOX IMVI = system: LOX IMVI
M14 = system: M14
MCF7 = system: MCF7
MDA-MB-231 = system: MDA-MB-231
MDA-MB-435 = system: MDA-MB-435
MDA-N = system: MDA-N
MOLT-4 = system: MOLT-4
Malme-3M = system: Malme-3M
NCI-H226 = system: NCI-H226
NCI-H23 = system: NCI-H23
NCI-H460 = system: NCI-H460
NCI-H522 = system: NCI-H522
NCI/ADR-RES = system: NCI/ADR-RES
OVCAR-3 = system: OVCAR-3
OVCAR-4 = system: OVCAR-4
OVCAR-5 = system: OVCAR-5
OVCAR-8 = system: OVCAR-8
PC-3 = system: PC-3
RPMI-8226 = system: RPMI-8226
RXF 393 = system: RXF 393
SF-268 = system: SF-268
SF-295 = system: SF-295
SF-539 = system: SF-539
SK-MEL-28 = system: SK-MEL-28
SK-MEL-2 = system: SK-MEL-2
SK-MEL-5 = system: SK-MEL-5
SK-OV-3 = system: SK-OV-3
SN12C = system: SN12C
SNB-19 = system: SNB-19
SNB-75 = system: SNB-75
SR = system: SR
SW-620 = system: SW-620
T47D = system: T47D
TK-10 = system: TK-10
U-251 = system: U-251
UACC-257 = system: UACC-257
UACC-62 = system: UACC-62
UO-31 = system: UO-31

C=CCn1c(=O)c(C)cn(/C(=C/C(=O)OCC)C(=O)OCC)c1=O
GI50 (786-0): 5.87 µM (inactive)
GI50 (A498): 22.1 µM (inactive)
GI50 (A549): 30 µM (inactive)
GI50 (ACHN): 9.08 µM (inactive)
GI50 (BT-549): 16.2 µM (inactive)
GI50 (CAKI-1): 1.85 µM (inactive)
GI50 (CCRF-CEM): 1.42 µM (inactive)
GI50 (COLO 205): 4.55 µM (inactive)
GI50 (DU-145): 40.7 µM (inactive)
GI50 (EKVX): 14 µM (inactive)
GI50 (HCC 2998): 17.4 µM (inactive)
GI50 (HCT-116): 9.62 µM (inactive)
GI50 (HCT-15): 2.97 µM
GI50 (HL-60): 2.19 µM (inactive)
GI50 (HOP-62): 51.1 µM (inactive)
GI50 (HOP-92): 3.52 µM (inactive)
GI50 (HT-29): 12.9 µM (inactive)
GI50 (Hs-578T): 24.5 µM (inactive)
GI50 (IGROV-1): 16.4 µM (inactive)
GI50 (K562): 4.19 µM (inactive)
GI50 (KM12): 17.2 µM (inactive)
GI50 (LOX IMVI): 6.28 µM (inactive)
GI50 (M14): 13.7 µM (inactive)
GI50 (MCF7): 4.34 µM (inactive)
GI50 (MDA-MB-231): 15.5 µM (inactive)
GI50 (MDA-MB-435): 13.5 µM (inactive)
GI50 (MDA-N): 13.9 µM (inactive)
GI50 (MOLT-4): 5.87 µM (inactive)
GI50 (Malme-3M): 13.8 µM (inactive)
GI50 (NCI-H226): 31.6 µM (inactive)
GI50 (NCI-H23): 16.1 µM (inactive)
GI50 (NCI-H460): 25.4 µM (inactive)
GI50 (NCI-H522): 1.69 µM (inactive)
GI50 (NCI/ADR-RES): 21.1 µM (inactive)
GI50 (OVCAR-3): 9.66 µM (inactive)
GI50 (OVCAR-4): 18.3 µM (inactive)
GI50 (OVCAR-5): 16.4 µM (inactive)
GI50 (OVCAR-8): 17.6 µM (inactive)
GI50 (PC-3): 14.8 µM (inactive)
GI50 (RPMI-8226): 14.6 µM (inactive)
GI50 (RXF 393): 14 µM (inactive)
GI50 (SF-268): 18.9 µM (inactive)
GI50 (SF-295): > 84.1 µM (inactive)
GI50 (SF-539): 23.2 µM (inactive)
GI50 (SK-MEL-28): 15.9 µM (inactive)
GI50 (SK-MEL-2): 23.2 µM (inactive)
GI50 (SK-MEL-5): 18 µM (inactive)
GI50 (SK-OV-3): 60 µM (inactive)
GI50 (SN12C): 14.2 µM (inactive)
GI50 (SNB-19): 46.9 µM (inactive)
GI50 (SNB-75): 11.1 µM (inactive)
GI50 (SR): 5.33 µM (inactive)
GI50 (SW-620): 3.85 µM (inactive)
GI50 (T47D): 11.9 µM (inactive)
GI50 (TK-10): 15.4 µM (inactive)
GI50 (U-251): 14.4 µM (inactive)
GI50 (UACC-257): 20.5 µM (inactive)
GI50 (UACC-62): 16.5 µM (inactive)
GI50 (UO-31): 15.7 µM (inactive)

O=C1c2ccccc2CN1c1ccc(OCCN2CCCCC2)cc1
GI50 (786-0): > 10 µM (inactive)
GI50 (A498): > 10 µM (inactive)
GI50 (A549): > 10 µM (inactive)
GI50 (ACHN): > 10 µM (inactive)
GI50 (BT-549): > 10 µM (inactive)
GI50 (CAKI-1): > 10 µM (inactive)
GI50 (CCRF-CEM): > 10 µM (inactive)
GI50 (COLO 205): > 10 µM (inactive)
GI50 (DU-145): > 10 µM (inactive)
GI50 (EKVX): > 10 µM (inactive)
GI50 (HCC 2998): > 10 µM (inactive)
GI50 (HCT-116): > 10 µM (inactive)
GI50 (HCT-15): > 10 µM
GI50 (HL-60): > 10 µM (inactive)
GI50 (HOP-62): > 10 µM (inactive)
GI50 (HOP-92): > 10 µM (inactive)
GI50 (HT-29): > 10 µM (inactive)
GI50 (Hs-578T): > 10 µM (inactive)
GI50 (IGROV-1): > 10 µM (inactive)
GI50 (K562): > 10 µM (inactive)
GI50 (KM12): > 10 µM (inactive)
GI50 (LOX IMVI): > 10 µM (inactive)
GI50 (M14): > 10 µM (inactive)
GI50 (MCF7): > 10 µM (inactive)
GI50 (MDA-MB-231): > 10 µM (inactive)
GI50 (MDA-MB-435): > 10 µM (inactive)
GI50 (MDA-N): > 10 µM (inactive)
GI50 (MOLT-4): > 10 µM (inactive)
GI50 (Malme-3M): > 10 µM (inactive)
GI50 (NCI-H226): > 10 µM (inactive)
GI50 (NCI-H23): > 10 µM (inactive)
GI50 (NCI-H460): > 10 µM (inactive)
GI50 (NCI-H522): > 10 µM (inactive)
GI50 (NCI/ADR-RES): > 10 µM (inactive)
GI50 (OVCAR-3): > 10 µM (inactive)
GI50 (OVCAR-4): > 10 µM (inactive)
GI50 (OVCAR-5): > 10 µM (inactive)
GI50 (OVCAR-8): > 10 µM (inactive)
GI50 (PC-3): > 10 µM (inactive)
GI50 (RPMI-8226): > 10 µM (inactive)
GI50 (RXF 393): > 10 µM (inactive)
GI50 (SF-268): > 10 µM (inactive)
GI50 (SF-295): > 10 µM (inactive)
GI50 (SF-539): > 10 µM (inactive)
GI50 (SK-MEL-28): > 10 µM (inactive)
GI50 (SK-MEL-2): > 10 µM (inactive)
GI50 (SK-MEL-5): > 10 µM (inactive)
GI50 (SK-OV-3): > 10 µM (inactive)
GI50 (SN12C): > 10 µM (inactive)
GI50 (SNB-19): > 10 µM (inactive)
GI50 (SNB-75): > 10 µM (inactive)
GI50 (SR): > 10 µM (inactive)
GI50 (SW-620): > 10 µM (inactive)
GI50 (T47D): > 10 µM (inactive)
GI50 (TK-10): > 10 µM (inactive)
GI50 (U-251): > 10 µM (inactive)
GI50 (UACC-257): > 10 µM (inactive)
GI50 (UACC-62): > 10 µM (inactive)
GI50 (UO-31): > 10 µM (inactive)

CC(C)(C)C1(COC(=O)c2ccc(N)cc2)COC1
GI50 (786-0): 73.3 µM (inactive)
GI50 (A498): 87.3 µM (inactive)
GI50 (A549): 52.6 µM (inactive)
GI50 (ACHN): 78.7 µM (inactive)
GI50 (BT-549): 54.6 µM (inactive)
GI50 (CAKI-1): > 100 µM (inactive)
GI50 (CCRF-CEM): 46 µM (inactive)
GI50 (COLO 205): > 100 µM (inactive)
GI50 (DU-145): > 100 µM (inactive)
GI50 (EKVX): 39.4 µM (inactive)
GI50 (HCC 2998): 57.5 µM (inactive)
GI50 (HCT-116): 51.9 µM (inactive)
GI50 (HCT-15): 63.2 µM
GI50 (HL-60): 26.3 µM (inactive)
GI50 (HOP-62): > 100 µM (inactive)
GI50 (HOP-92): > 100 µM (inactive)
GI50 (HT-29): 50.1 µM (inactive)
GI50 (Hs-578T): > 100 µM (inactive)
GI50 (IGROV-1): > 100 µM (inactive)
GI50 (K562): 46.3 µM (inactive)
GI50 (KM12): 58.5 µM (inactive)
GI50 (LOX IMVI): > 100 µM (inactive)
GI50 (M14): 61 µM (inactive)
GI50 (MCF7): 45 µM (inactive)
GI50 (MDA-MB-231): 52.1 µM (inactive)
GI50 (MDA-MB-435): 53.3 µM (inactive)
GI50 (MDA-N): 66.1 µM (inactive)
GI50 (MOLT-4): 30.5 µM (inactive)
GI50 (Malme-3M): 89.7 µM (inactive)
GI50 (NCI-H226): > 100 µM (inactive)
GI50 (NCI-H23): 66.7 µM (inactive)
GI50 (NCI-H460): 48.4 µM (inactive)
GI50 (NCI-H522): 47.6 µM (inactive)
GI50 (NCI/ADR-RES): 58.3 µM (inactive)
GI50 (OVCAR-3): 26.3 µM (inactive)
GI50 (OVCAR-4): 32.7 µM (inactive)
GI50 (OVCAR-5): > 100 µM (inactive)
GI50 (OVCAR-8): 58.3 µM (inactive)
GI50 (PC-3): 47.2 µM (inactive)
GI50 (RPMI-8226): 58.9 µM (inactive)
GI50 (RXF 393): 72.4 µM (inactive)
GI50 (SF-268): > 100 µM (inactive)
GI50 (SF-295): 29.1 µM (inactive)
GI50 (SF-539): 32.4 µM (inactive)
GI50 (SK-MEL-28): > 100 µM (inactive)
GI50 (SK-MEL-2): > 100 µM (inactive)
GI50 (SK-MEL-5): 58.7 µM (inactive)
GI50 (SK-OV-3): 58.1 µM (inactive)
GI50 (SN12C): 94.6 µM (inactive)
GI50 (SNB-19): > 100 µM (inactive)
GI50 (SNB-75): 76.6 µM (inactive)
GI50 (SR): 75.3 µM (inactive)
GI50 (SW-620): > 100 µM (inactive)
GI50 (T47D): 24.4 µM (inactive)
GI50 (TK-10): > 100 µM (inactive)
GI50 (U-251): 58.1 µM (inactive)
GI50 (UACC-257): 43.5 µM (inactive)
GI50 (UACC-62): 55 µM (inactive)
GI50 (UO-31): 56 µM (inactive)

— ChEMBL document CHEMBL1201862, “PubChem BioAssay data set” (2004)
